Values of other authors as cited in patent US20130048853A1, “Adsorbent and Method for Producing Same” (HITACHI HIGH-TECHNOLOGIES CORPORATION, priority 2010, published 2013).
Several values for one entry are separate records, joined by “and”; a condition that tells them apart may be missing. Identical values can stand only once. Like-named read-outs stand apart in the source and are kept apart here.

[1] = source not stated, calculated or actual values may be applied

logP (octanol-water distribution coefficient) [1]	logP (octanol-water distribution coefficient)	Structure (SMILES)
3.4 and 3.35		CO[C@H]1C[C@@H]2CC[C@@H](C)[C@@](O)(O2)C(=O)C(=O)N2CCCC[C@H]2C(=O)O[C@H]([C@H](C)C[C@@H]2CC[C@@H](OCCO)[C@H](OC)C2)CC(=O)[C@H](C)/C=C(\C)[C@@H](O)[C@@H](OC)C(=O)[C@H](C)C[C@H](C)/C=C/C=C/C=C/1C [everolimus]
	2.5	O=C1NC(=O)C(c2ccccc2)(c2ccccc2)N1 [phenyloin]
3.5		CO[C@H]1C[C@@H]2CC[C@@H](C)[C@@](O)(O2)C(=O)C(=O)N2CCCC[C@H]2C(=O)O[C@H]([C@H](C)C[C@@H]2CC[C@@H](O)[C@H](OC)C2)CC(=O)[C@H](C)/C=C(\C)[C@@H](O)[C@@H](OC)C(=O)[C@H](C)C[C@H](C)/C=C/C=C/C=C/1C [rapamycin]
